Patent US20160214956A1, “NOVEL SOLUBLE GUANYLATE CYCLASE ACTIVATORS AND THEIR USE” (GLAXOSMITHKLINE INTELLECTUAL PROPERTY DEVELOPMENT LIMITED, priority 2013, published 2016)

Assays:
[1] = system: intraocular pressure; assay: IOP in Japanese White rabbits after intravitreal administration; format: in vivo; details: FIG. 2
Protocol: (§1) In Japanese White rabbits, IOP was measured at baseline (immediately preceding administration of test article) and at predetermined time points (1, 2, 3, 5, 7, 9, 24 hours; additional time points were 30 and 48 hours after intravitreal administration) after topical (FIG. 1) or intravitreal (FIG. 2) administration of ophthalmic formulations containing drug, vehicle or saline using applanation tonometry. Test articles were topically administered in a 50 microliter volume to the right eye, saline in a 50 microliter volume to the contralateral, left eye. For intravitreal administration, dosing volumes were 20 microliters instead. For each animal, the difference between right eye IOP and left eye IOP was calculated as delta IOP.

[2] = biological target: T1, soluble guanylate cyclase (sGC) (Rattus norvegicus, UniProt P20595); assay: Cellular assay, VASP phosphorylation in rat aortic smooth muscle cells with ODQ; format: cell-based; details: phospho-VASP signal, primary rat aortic smooth muscle cells, 10 μM ODQ, 30 min incubation; 50% vs. Bmax; read-out: Cell assay pEC50 (converted)
T1 construct: endogenous in cells; host or cells: primary rat aortic smooth muscle cells
T1 sequence (P20595 1-619): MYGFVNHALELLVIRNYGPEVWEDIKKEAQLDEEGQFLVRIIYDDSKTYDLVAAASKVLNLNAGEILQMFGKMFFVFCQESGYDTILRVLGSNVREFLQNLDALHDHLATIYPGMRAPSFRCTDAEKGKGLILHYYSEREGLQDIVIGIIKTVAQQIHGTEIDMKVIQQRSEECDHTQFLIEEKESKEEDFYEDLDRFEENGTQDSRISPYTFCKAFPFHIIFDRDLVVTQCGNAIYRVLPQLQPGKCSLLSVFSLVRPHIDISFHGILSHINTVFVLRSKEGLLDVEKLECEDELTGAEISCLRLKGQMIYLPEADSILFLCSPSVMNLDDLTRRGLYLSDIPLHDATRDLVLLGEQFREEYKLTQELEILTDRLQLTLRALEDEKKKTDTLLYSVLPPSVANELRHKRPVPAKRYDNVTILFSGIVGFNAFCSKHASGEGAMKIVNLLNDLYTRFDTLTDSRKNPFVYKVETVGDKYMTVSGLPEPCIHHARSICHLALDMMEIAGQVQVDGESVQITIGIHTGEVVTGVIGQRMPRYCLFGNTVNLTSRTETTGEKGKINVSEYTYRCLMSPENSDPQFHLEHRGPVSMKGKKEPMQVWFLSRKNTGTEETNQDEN
T1 sequence (P19686 1-690 partner): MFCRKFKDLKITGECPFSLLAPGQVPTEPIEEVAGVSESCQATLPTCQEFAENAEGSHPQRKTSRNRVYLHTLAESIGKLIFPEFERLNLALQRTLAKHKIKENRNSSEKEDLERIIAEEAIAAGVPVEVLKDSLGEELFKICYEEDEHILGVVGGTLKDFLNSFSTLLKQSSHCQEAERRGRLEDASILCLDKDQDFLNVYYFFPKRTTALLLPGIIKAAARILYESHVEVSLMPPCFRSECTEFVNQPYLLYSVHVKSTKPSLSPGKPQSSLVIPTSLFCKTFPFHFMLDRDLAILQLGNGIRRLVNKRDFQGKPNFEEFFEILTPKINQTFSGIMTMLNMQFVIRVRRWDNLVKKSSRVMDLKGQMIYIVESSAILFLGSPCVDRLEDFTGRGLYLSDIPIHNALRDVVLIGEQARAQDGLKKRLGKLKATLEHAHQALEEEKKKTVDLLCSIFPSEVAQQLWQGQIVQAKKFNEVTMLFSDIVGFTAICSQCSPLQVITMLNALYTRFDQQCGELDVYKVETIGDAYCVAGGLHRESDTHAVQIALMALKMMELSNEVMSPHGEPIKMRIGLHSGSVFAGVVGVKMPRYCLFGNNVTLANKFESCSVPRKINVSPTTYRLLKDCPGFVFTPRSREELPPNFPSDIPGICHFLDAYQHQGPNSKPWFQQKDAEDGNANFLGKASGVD
Protocol: The activity of soluble guanylate cyclase (sGC) was tested in an assay based on measuring phosphorylation of the protein kinase G (PKG) substrate vasodilator-stimulated phosphoprotein (VASP) in rat aortic smooth muscle cells. […] Dimethylsulfoxide (DMSO) vehicle and varying concentrations of the compound to be tested were then added. Following a 30 min incubation at 37° C., media was aspirated and the cells were rinsed with phosphate-buffered saline (PBS) and fixed with 4% formaldehyde in PBS by incubating at room temperature for 20 min. Cells were then washed with PBS and permeabilized for 10 min using 0.1% triton X-100 in PBS. Following PBS rinsing, the cells were blocked for 90 min at room temperature with blocking buffer. The buffer was aspirated and the cells were treated overnight at 4° C. with primary antibody (pSer239-VASP, rabbit polyclonal Ab) diluted 1:500 in blocking buffer. Following three washes with 0.05% Tween 20, the cells were treated for 1 h at room temperature with a fluorescent labeled secondary antibody (IRDye® 800CW Donkey Anti-Rabbit IgG) diluted 1:2500 in blocking buffer with 0.05% Tween 20. Following two washes with PBS, infrared fluorescence was measured using an Odyssey Infrared Imaging System. The activity of a test compound was determined as the pEC50 value which is the concentration able to increase by 50% (vs. Bmax) the phospho-VASP fluorescent signal. Front. Pharmacol., 5 Jul. 2012|doi: 10.3389/fphar.2012.00128, Volume 3 July, 2012, Article number 128.

[3] = system: intraocular pressure; assay: IOP in normal C57BL/6J mice after topical administration; format: in vivo; details: 4 microliter to right eye, compared with latanoprost, FIG. 3
Protocol: Additionally, the effect on IOP in normal mice was also assessed. In C57BL/6J mice, IOP was measured at baseline (immediately preceding administration of test article) and at predetermined time points (1, 2, 3, 4, 6, 8, 24 hours) after topical administration of ophthalmic formulations containing drug, vehicle or saline using a TonoLab. Test articles were administered in a 4 microliter volume to the right eye, saline in a 4 microliter volume to the contralateral, left eye. For each animal, the difference between right eye IOP and left eye IOP was calculated as delta IOP.

[4] = system: intraocular pressure; assay: IOP in Japanese White rabbits after topical administration; format: in vivo; details: 50 microliter to right eye, FIG. 1
Protocol: as §1

Cc1cc(OCCCC(F)(F)F)ccc1CCc1ccccc1-c1cccc(-n2ncc(C(=O)O)c2C(F)(F)F)n1 [Example 1, 1-(6-(2-(2-methyl-4-(4,4,4-trifluorobutoxy)phenethyl)phenyl)pyridin-2-yl)-5-(trifluoromethyl)-1H-pyrazole-4-carboxylic acid]
effect on IOP (delta IOP) ([1]; 20 microliters to right eye): long-lasting and effective reduction in IOP | duration of IOP reduction [1]: at least 48 hours | EC50 [2]: 14.5 nM | effect on IOP (delta IOP) [3]: lowered IOP with efficacy similar to latanoprost, but without the initial hypertensive spike | effect on IOP (delta IOP) [4]: dose-dependently and effectively decreased IOP

Cc1cc(OCCCn2ccc(C(F)(F)F)n2)ccc1CCc1ccccc1-c1cccc(-n2ncc(C(=O)O)c2C(F)(F)F)n1 [Example 3, 1-(6-(2-(2-methyl-4-(3-(3-(trifluoromethyl)-1H-pyrazol-1-yl)propoxy)phenethyl)phenyl)pyridin-2-yl)-5-(trifluoromethyl)-1H-pyrazole-4-carboxylic acid]
EC50 [2]: 5.89 nM

O=C(O)c1cnn(-c2cccc(-c3ccccc3OCc3ccc(OCCCC(F)(F)F)cc3F)n2)c1C(F)(F)F [Example 5, 1-(6-(2-((2-fluoro-4-(4,4,4-trifluorobutoxy)benzyl)oxy)phenyl)pyridin-2-yl)-5-(trifluoromethyl)-1H-pyrazole-4-carboxylic acid]
EC50 [2]: 60.3 nM

COCCCOc1ccc(COc2ccccc2-c2cccc(-n3ncc(C(=O)O)c3C(F)(F)F)n2)c(F)c1 [Example 6, 1-(6-(2-((2-fluoro-4-(3-methoxypropoxy)benzyl)oxy)phenyl)pyridin-2-yl)-5-(trifluoromethyl)-1H-pyrazole-4-carboxylic acid]
EC50 [2]: 151 nM

Cc1cc(OCCCC#N)ccc1COc1ccccc1-c1cccc(-n2ncc(C(=O)O)c2C(F)(F)F)n1 [Example 9, 1-(6-(2-((4-(3-cyanopropoxy)-2-methylbenzyl)oxy)phenyl)pyridin-2-yl)-5-(trifluoromethyl)-1H-pyrazole-4-carboxylic acid]
EC50 [2]: > 631 nM

COCCCOc1ccc(COc2ccccc2-c2cccc(-n3ncc(C(=O)O)c3C(F)(F)F)n2)c(C)c1 [Example 10, 1-(6-(2-((4-(3-methoxypropoxy)-2-methylbenzyl)oxy)phenyl)pyridin-2-yl)-5-(trifluoromethyl)-1H-pyrazole-4-carboxylic acid]
EC50 [2]: 91.2 nM

Cc1cc(OCCCC(F)(F)F)ccc1COc1ccccc1-c1cccc(-n2ncc(C(=O)O)c2C(F)(F)F)n1 [Example 11, 1-(6-(2-((2-methyl-4-(4,4,4-trifluorobutoxy)benzyl)oxy)phenyl)pyridin-2-yl)-5-(trifluoromethyl)-1H-pyrazole-4-carboxylic acid]
EC50 [2]: 102 nM
